ChEMBL document CHEMBL1138896, “2,3,7-Trisubstituted pyrazolo[1,5-d][1,2,4]triazines: functionally selective GABAA alpha3-subtype agonists” (Bioorg Med Chem Lett, 2006)

Assays:
[1] = target: T1, GABA-A receptor; alpha-3/beta-3/gamma-2 (Homo sapiens, UniProt P18507+P28472+P34903); assay: Inhibition of [3H]Ro15-1788 binding to human recombinant GABA-Aalpha3 plus beta-3-gamma-2 receptor expressed in L(tk-) cells; assay type: cell-based
T1 sequence (P18507 whole entry): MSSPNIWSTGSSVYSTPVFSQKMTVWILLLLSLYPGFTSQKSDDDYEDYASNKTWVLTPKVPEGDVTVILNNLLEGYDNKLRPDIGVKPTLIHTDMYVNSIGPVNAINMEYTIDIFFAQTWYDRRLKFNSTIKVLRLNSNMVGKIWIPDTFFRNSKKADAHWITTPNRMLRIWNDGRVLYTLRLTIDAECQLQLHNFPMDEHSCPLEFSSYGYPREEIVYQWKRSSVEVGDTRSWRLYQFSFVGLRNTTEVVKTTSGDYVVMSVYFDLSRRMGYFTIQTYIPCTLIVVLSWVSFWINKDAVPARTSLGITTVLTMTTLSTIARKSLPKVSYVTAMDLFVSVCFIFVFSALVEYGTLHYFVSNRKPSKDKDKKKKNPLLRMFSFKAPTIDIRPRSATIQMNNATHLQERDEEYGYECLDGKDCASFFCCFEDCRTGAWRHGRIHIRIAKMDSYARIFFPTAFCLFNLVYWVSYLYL
T1 sequence (P28472 whole entry): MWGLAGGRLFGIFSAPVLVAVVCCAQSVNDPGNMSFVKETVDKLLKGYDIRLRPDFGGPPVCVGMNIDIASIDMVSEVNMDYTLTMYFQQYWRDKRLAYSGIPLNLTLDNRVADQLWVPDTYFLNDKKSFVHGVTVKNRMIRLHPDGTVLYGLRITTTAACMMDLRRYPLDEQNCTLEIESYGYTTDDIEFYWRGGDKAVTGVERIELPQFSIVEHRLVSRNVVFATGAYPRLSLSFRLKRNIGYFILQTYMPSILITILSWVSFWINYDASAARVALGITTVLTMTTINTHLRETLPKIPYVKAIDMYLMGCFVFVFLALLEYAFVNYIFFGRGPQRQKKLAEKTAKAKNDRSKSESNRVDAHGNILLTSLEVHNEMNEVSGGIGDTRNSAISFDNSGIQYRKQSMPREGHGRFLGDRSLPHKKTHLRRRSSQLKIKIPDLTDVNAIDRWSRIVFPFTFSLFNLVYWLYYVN
T1 sequence (P34903 whole entry): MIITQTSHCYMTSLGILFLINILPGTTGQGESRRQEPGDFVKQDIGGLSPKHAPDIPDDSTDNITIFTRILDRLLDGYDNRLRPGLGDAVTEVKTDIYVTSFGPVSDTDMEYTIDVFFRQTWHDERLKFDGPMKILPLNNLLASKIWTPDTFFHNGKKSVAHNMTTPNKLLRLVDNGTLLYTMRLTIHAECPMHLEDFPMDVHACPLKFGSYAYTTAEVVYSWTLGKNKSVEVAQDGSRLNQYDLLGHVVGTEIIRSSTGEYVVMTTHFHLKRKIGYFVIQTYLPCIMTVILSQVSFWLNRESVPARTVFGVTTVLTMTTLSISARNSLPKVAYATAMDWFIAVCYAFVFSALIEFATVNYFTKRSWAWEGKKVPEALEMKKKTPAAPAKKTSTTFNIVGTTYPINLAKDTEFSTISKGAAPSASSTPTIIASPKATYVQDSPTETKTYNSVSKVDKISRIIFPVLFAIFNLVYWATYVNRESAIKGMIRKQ

[2] = target: GABA-A receptor; alpha-1/beta-3/gamma-2 (Homo sapiens) (UniProt P14867+P18507+P28472); assay: Efficacy against human recombinant GABA-Aalpha1 plus beta-3-gamma-2 receptor expressed in L(tk-) cells assessed as modulation of chloride ion by whole cell patch clamp method relative to chlorodiazepoxide; assay type: functional, cell-based
[3] = target: GABA-A receptor; alpha-3/beta-3/gamma-2 (Homo sapiens) (UniProt P18507+P28472+P34903); assay: Efficacy against human recombinant GABA-Aalpha3 plus beta-3-gamma-2 receptor expressed in L(tk-) cells assessed as modulation of chloride ion by whole cell patch clamp method relative to chlorodiazepoxide; assay type: functional, cell-based
[4] = target: T2, GABA-A receptor; alpha-1/beta-3/gamma-2 (Homo sapiens, UniProt P14867+P18507+P28472); assay: Inhibition of [3H]Ro15-1788 binding to human recombinant GABA-Aalpha1 plus beta-3-gamma-2 receptor expressed in L(tk-) cells; assay type: cell-based
T2 sequence (P14867 whole entry): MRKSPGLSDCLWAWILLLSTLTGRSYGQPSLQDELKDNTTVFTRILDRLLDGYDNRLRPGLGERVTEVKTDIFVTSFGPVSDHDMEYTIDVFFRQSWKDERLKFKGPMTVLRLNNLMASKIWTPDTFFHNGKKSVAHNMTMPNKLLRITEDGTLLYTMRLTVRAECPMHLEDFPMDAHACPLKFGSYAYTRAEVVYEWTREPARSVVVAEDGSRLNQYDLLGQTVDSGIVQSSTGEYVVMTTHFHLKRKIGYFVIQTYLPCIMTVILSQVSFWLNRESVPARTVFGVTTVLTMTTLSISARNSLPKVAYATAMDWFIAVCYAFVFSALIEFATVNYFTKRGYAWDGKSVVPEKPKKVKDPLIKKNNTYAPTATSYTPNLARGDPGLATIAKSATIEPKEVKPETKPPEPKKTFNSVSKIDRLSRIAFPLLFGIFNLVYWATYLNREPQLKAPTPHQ
T2 sequence (P18507 whole entry): T1 sequence (P18507 whole entry)
T2 sequence (P28472 whole entry): T1 sequence (P28472 whole entry)

[5] = Oral bioavailability in rat; assay type: ADME, organism-based; conditions: in vivo
Rattus norvegicus = assay: Receptor occupancy in rat, po; assay type: functional

SMILES	Ki [1] [nM]	Efficacy [2]	Efficacy [3]	Ki [4] [nM]	bioavailability [5] [%]	Activity (Rattus norvegicus) [mg/kg]
Cn1ncnc1COc1nn2c(-c3ccccc3F)nncc2c1-c1ccccc1F	0.45	0.22	0.4	–	–	–
Cn1ncnc1COc1nn2c(-c3ccccc3F)nncc2c1-c1cccc(F)c1F	1.5	0.27	0.4	–	–	–
Cn1ncnc1COc1nn2c(-c3cc(F)ccc3F)nncc2c1-c1ccccc1F	1.3	0.52	0.52	–	–	–
Cn1ncnc1COc1nn2c(-c3ccccc3F)nncc2c1-c1cccc(F)c1	0.28	0.23	0.46	–	–	–
Cn1ncnc1COc1nn2c(-c3ccc(F)cc3F)nncc2c1-c1ccccc1F	2	0.42	0.78	–	–	–
Cn1ncnc1COc1nn2c(-c3ccccc3F)nncc2c1-c1ccccc1Cl	8.7	0.32	0.32	–	–	–
Cn1ncnc1COc1nn2c(-c3ccccc3Cl)nncc2c1-c1ccccc1F	21	-0.02	0.02	–	–	–
Cn1ncnc1COc1nn2c(-c3ccccc3F)nncc2c1-c1ccccn1	1.4	0.45	0.56	–	–	–
Cn1ncnc1COc1nn2c(-c3c(F)cc(F)cc3F)nncc2c1-c1ccccc1F	2.6	0.37	0.59	–	–	–
Cn1ncnc1COc1nn2c(-c3ccccc3F)nncc2c1-c1cccc(C(F)(F)F)c1	0.54	0.3	0.46	–	–	–
Cn1ncnc1COc1nn2c(-c3ccccc3F)nncc2c1-c1ccco1	0.11	-0.09	0.16	–	–	–
Cn1ncnc1COc1nn2c(-c3c(F)cccc3F)nncc2c1-c1ccccc1F	0.52	0.29	0.55	–	–	–
Cn1ncnc1COc1nn2c(-c3ccccc3F)nncc2c1-c1ccc(F)cc1	6.3	0.09	0.31	–	–	–
Cn1ncnc1COc1nn2c(-c3cccc(F)c3)nncc2c1-c1ccccc1F	1.2	0.38	0.57	–	–	–
Cn1ncnc1COc1nn2c(-c3cccnc3)nncc2c1-c1ccccc1F	1.1	0.15	0.16	–	–	–
Cn1ncnc1COc1nn2c(-c3ccccc3F)nncc2c1-c1ccccc1	0.77	0.18	0.44	0.39	–	–
Cn1ncnc1COc1nn2c(-c3ccccc3F)nncc2c1-c1cccc(Cl)c1	1.1	0.35	0.45	–	–	–
Cn1ncnc1COc1nn2c(-c3ccccc3F)nncc2c1-c1cccc(N)c1	14	0.42	0.38	–	–	–
Cc1ccccc1-c1c(OCc2ncnn2C)nn2c(-c3ccccc3F)nncc12	23	–	–	–	–	–

SMILES	Ki [1] [nM]	Efficacy [2]	Efficacy [3]	Ki [4] [nM]	bioavailability [5] [%]	Activity (Rattus norvegicus) [mg/kg]
Cn1ncnc1COc1nn2c(-c3cccs3)nncc2c1-c1ccccc1	1.6	-0.03	0.19	–	–	–
Cn1ncnc1COc1nn2c(-c3ccccc3F)nncc2c1-c1cncnc1	> 33	–	–	–	–	–
Cn1ncnc1COc1nn2c(-c3c(F)ccc(F)c3F)nncc2c1-c1ccccc1F	2.7	0.45	0.55	–	–	–
Cn1ncnc1COc1nn2c(-c3ccccc3F)nncc2c1-c1cccc(C#N)c1	1.6	0.35	0.28	–	–	–
Cn1ncnc1COc1nn2c(-[n+]3ccncc3)nncc2c1-c1ccccc1F	2.7	0.03	0.18	–	–	–
Cn1ncnc1COc1nn2c(-c3ccccc3F)nncc2c1-c1ccccc1C(F)(F)F	> 33	–	–	–	–	–
Cn1ncnc1COc1nn2c(-c3ccc(F)cc3)nncc2c1-c1ccccc1F	0.94	0.36	0.6	–	–	–
Cn1ncnc1COc1nn2c(-c3ccccc3F)nncc2c1-c1cc(F)ccc1F	0.2	0.29	0.46	–	–	–
Cn1ncnc1COc1nn2c(-c3ccoc3)nncc2c1-c1ccccc1F	0.61	0.07	-0.12	–	–	–
Cn1ncnc1COc1nn2c(-c3ccccc3F)nncc2c1-c1ccncc1	0.14	0.1	0.19	–	–	–
Cn1ncnc1COc1nn2c(-c3ccccc3F)nncc2c1-c1cccc(CO)c1	6.6	0.5	0.5	–	–	–
Cn1ncnc1COc1nn2c(-c3ccccc3F)nncc2c1-c1cccnc1	0.98	0.35	0.52	–	–	–
Cn1ncnc1COc1nn2c(-c3ccccc3F)nncc2c1-c1cc(F)cc(F)c1	> 33	–	–	–	–	–
Cn1ncnc1COc1nn2c(-c3ccco3)nncc2c1-c1ccccc1F	0.85	0.01	0.19	–	–	–
Cn1ncnc1COc1nn2c(-c3ccccc3F)nncc2c1-c1ccsc1	0.1	-0.02	0.21	–	32	0.54
Cn1ncnc1COc1nn2c(-c3ccccc3F)nncc2c1-c1cccs1	0.1	0.01	0.12	–	–	–
Cn1ncnc1COc1nn2c(C3CC3)nncc2c1-c1ccccc1F	0.36	-0.08	-0.01	–	–	–
Cn1ncnc1COc1nn2c(-c3ccccc3F)nncc2c1-c1c(F)cccc1F	0.55	0.23	0.45	–	–	–
